One series concerns KRAS 35G>A mutant G12D. As to the kind of experiment: Indel frequencies at the endogenous target sequences (T7E1 / deep sequencing) after ADGN/Cas9 mRNA/gRNA transfection. It counts as cell-based, human. The note with it: for indel frequencies: deep sequencing, 72 hours after transfection, Cas9 mRNA 0.1 μg, gRNA 0.2 μg. The procedure:
Complex formation with mRNA:gRNA: ADGN peptide/mRNA/gRNA particles were prepared at a 20:1:1 molar ratio. ADGN/Cas9mRNA/sgRNA complexes were prepared at a 20/1/1 molar ratio with 0.5 μg mRNA: 1.5 μg sgRNA and 5% Glucose or DMEM (example for 96 well plates). […] Premixed Cas9 mRNA/gRNA were prepared in sterile water at room temperature in a glass vial (1-4 ml). ADGN-peptide solution was added dropwise (1 drop/sec) under magnetic agitation at 400 rpm to obtain a 1:2 ratio, and incubated for 30 min at room temperature or 37° C. Just before transfection, 150 μl Glucose or DMEM was added and the solution was mixed under magnetic agitation at 400 rpm for 1 minute. Then the solution was incubated for 5 min at 37° C. Then the complexes was ready for cell transfection or IV administration. Prior to IV administration, complexes were diluted in sucrose 5% solution.
(§1) Transfection protocol. The following protocols are reported for 24/48/96 well plate format transfection. Cells should be trypsinized and seeded a day prior transfection Cells were cultured in Dulbecco's Modified Eagle's Medium (DMEM), supplemented with 2 mM glutamine, 1% antibiotics (streptomycin 10,000 μg/mL, penicillin, 10,000 IU/mL) and 10% (w/v) foetal calf serum (FCS), at 37° C. in a humidified atmosphere containing 5% CO2. 96 well plates seeded with 50,000 cells, the day prior transfection, grown to 60-80% confluence and set up to be at around 70% confluence at the day of transfection. Before transfection, cells are washed twice with DMEM (without FBS and pen/strep) (100 μl/well). Cells were then overlaid with 25 μl of complex solution, mixed gently and incubated for 10 min at 37° C.+5% CO2. 50 μl of fresh DMEM (without FBS and Antibiotics) was added and cells were incubated for 2 h at 37° C.+5% CO2 (time of exposure can be adjusted based on sensitivity of the cells). 250 μL of DMEM (containing 10% FCS and 1% antibiotics) were then added without removing the overlay of ADGN peptide/mRNA complexes. Cells were returned to the incubator (37° C., 5% CO2) and analyzed 48 hours to 72 hours post transfection.
(§2) Nine different gRNAs targeting KRAS 35G>A mutant G12D (gRNA35A1, gRNA35A2, gRNA35A3, gRNA35A4, gRNA35A5, gRNA35A6; gRNA35A7, gRNA35A8, gRNA35A9) were evaluated on LS513, Panc1, PK-45H, and PK1 cancer cells harboring G12D KRAS mutation. Cas9 mRNA (0.1 μg) and gRNA (0.2 μg) were associated with ADGN-peptide at molar ratio 20/1 (peptide/nucleic acid). LS513, Panc1, PK-45H, PK1, HS-68 and HT-29 cells were cultured in 48 well plate format and treated with free mRNACas9-gRNA, or ADGN/mRNACas9:gRNA complex. Indel frequencies at the endogenous target sequences was evaluated 72 hours after transfection by either T7E1 method or deep sequencing. Cell proliferation was analyzed over a period of 5 days using CellTiter Glow kits on GlowMax (Promega).
(§3) In order to confirm the specificity of sgRNAs targeting G12V, G12C or G12D KRAS mutation, gRNA35T3 targeting G12V, gRNA34T6 targeting G12C, and gRNA35A5 targeting G12D were evaluated on a large panel of cancer cells harboring different KRAS mutations including SW403, SW480, PANC1, PK-45H, PK-1, MIA-PACA, H23, H358, HT-29, HS-68 and LS513. Cas9 mRNA (0.2 μg) and gRNA (0.4 μg) were associated with ADGN peptide at molar ratio 20/1 (peptide/nucleic acid). Cells were cultured in 48 well plate format and treated with free mRNACas9-gRNA, or ADGN/mRNACas9:gRNA complex. Indel frequencies at the endogenous target sequences was evaluated 72 hours after transfection by either T7E1 method and cell proliferation was analyzed over a period of 5 days using CellTiter Glow kits on GlowMax (Promega).

Series [1] relates to PANC1, PK1, LS513 and PK-45H cells. In words: Cell proliferation over 5 days (CellTiter Glow). It counts as cell-based, human. The procedure:
as §1, §2
A general note: ATP-based viability assays read luminescence as a measure of living cells.

For series [2], the system named is G12V, G12D, G12C KRAS mutant cells and WT KRAS cells. In words: Specificity of lead sgRNAs on a large panel of cancer cells harboring different KRAS mutations (indel, proliferation). It counts as cell-based, human. The note with it: Cas9 mRNA 0.2 μg, gRNA 0.4 μg. The procedure: as §3
Another series relates to pAKT. As to the kind of experiment: Downstream signaling proteins quantified by ELISA on tumors. Format: in vivo, mice. To be noted: PANC1 tumors. The procedure:
(§4) The specificity of gRNA35A5 G12D and gRNA35T3 G12V for their targets in PANC-1 and SW403 tumors cells, have been analyzed. Female nude mice 6-weeks of age were injected with either Human pancreatic carcinoma cell (Panc1-Luc) containing the 35G>A mutation or Human colorectal cancer cells (SW403) containing 35G>T KRAS mutation (20×10^6 cells in 200 μl PBS). A period of 2 weeks was allowed for tumor development before the beginning of the experiments.
(§5) Animal were injected on day 1 and day 7. Mice received IV injection of 100 μl ADGN/mRNA complex in 5% glucose. At Day 50, animals were sacrificed and tissues/tumors were harvested. At Day 50 post treatment, level of expression of housekeeping genes; glyceraldehyde-3-phosphate dehydrogenase (GAPDH), HPRT-1 and mitochondrial ATP synthase 6 (mATPsy6) was evaluated by PCR in the tumor, liver, spleen and lung.
(§6) We analyzed the level of KRAS G12D or KRAS G12V gene editing by deep sequencing in PANC1 (FIG. 14A) and SW403 (FIG. 14B) tumors, respectively. […] The level of downstream signaling proteins (pAKT and pERK) were quantified by ELISA on PANC1 and SW403 tumors. […] Given that targeting KRAS using Cas9/sgRNA can induce various secondary mutations at or near the target sites, deep sequencing shown similar level of secondary oncogenic mutations (G12D, G12V, G12C, G13D, G12R, G12A, and G12S) in KRAS-mutant cancer cells (SW403/PANC-1) or cells containing wild-type KRAS (HT29) either in vitro or in vivo.
On the technique in general: ELISA stands for enzyme-linked immunosorbent assay.

The next series deals with pERK. Described as above. It counts as in vivo, mice. The note with it: PANC1 tumors. The procedure: as §4, §5, §6

“And” between values parts separate entries of the source, which are not always exact repeats. Equal values may be shown once. Some results are limits rather than exact numbers.

“AGT TGG AGC TGA TGG CGT (guide AGTTGGAGCTGATGGCGT; chemistry not given here) [gRNA35A5, sgRNA target KRAS G12D mutation (35G>A); PAM AGG]”: the “disruption of G12D mutant KRAS (FIG. 2A)” value in the series on KRAS 35G>A mutant G12D (G12D cancer cells vs wild type KRAS cells (HT29 or HS-68)) is recorded as “induced efficient disruption of G12D mutant KRAS”. The indel frequency in the series on KRAS 35G>A mutant G12D (KRAS G12D mutated cancer cells) was above 70%; in the series with KRAS 35G>A mutant G12D (PANC-1, PK-1, and PK-45H cells, T7E1, 72 hours, Cas9 mRNA 0.2 μg, gRNA 0.4 μg), above 75%. Besides, the indel frequencies is 35 ± 4% in the series on KRAS 35G>A mutant G12D (LS513 cells); 67% and 67 ± 5% with KRAS 35G>A mutant G12D (PANC1 cells); 78% and 78 ± 8% in the series on KRAS 35G>A mutant G12D (PK1 cells); 75% and 75 ± 7% with KRAS 35G>A mutant G12D (PK-45H cells). In addition, in series [1], the “fold more efficient than gRNA35A2 (cell proliferation)” value was 2 fold. Moreover, in series [1], the “fold more efficient than gRNA35A6 (cell proliferation)” value was 3 fold. Also, the “inhibition of proliferation or survival (FIG. 2B)” value in series [1] (PANC1, PK1, LS513, PK-45H vs HT29 or HS-68 cells harboring KRAS WT) was “specifically inhibit proliferation or survival of PANC1, PK1, LS513 and PK-45H cells”. Also, the cell proliferation blocked in series [1] (PANC1, PK1, LS513 and PK-45H cells, 5 days) is on record as 80%. Besides, the “effect on non-targeted KRAS mutant cells and WT KRAS cells (FIGS. 4A-4B)” value in series [2] is “does not alter G12V and G12C KRAS mutant cells or WT KRAS cells”. Moreover, the “level of p-AKT” value in the series with pAKT is on record as “significantly reduced”. The “level of p-ERK” value in the series with pERK is “significantly reduced”.

The record behind these values is US20230167437A1, “COMPOSITIONS FOR TREATING CANCER WITH KRAS MUTATIONS AND USES THEREOF” (Aadigen, LLC, priority 2020, published 2023).
